Here are results for 16 compounds from US20030109523A1, “Bicyclic antagonists selective for the alphavbeta3 integrin” (Wyeth, priority 1999, published 2003).

For one data set, the target named is T1, αIIbβ3 integrin (Homo sapiens, UniProt P05106+P08514).
T1 construct: Human Platelets: Platelet-enriched plasma was obtained commercially from a donor pool; from tissue; host or cells: human platelet-rich plasma from a commercial donor pool
In words: ADP-Induced Platelet Aggregation. In kind it is cell-based. The settings on record: Table VII; for IC50: ADP 20 uM, human platelets, read-out: Platelet Aggregation αIIbβ3 IC50; for remaining activity at 200 µM: percent of maximal aggregation. As to the method:
Measurement of the Effect of Compounds on ADP-Induced Platelet Aggregation
Measuring the effect of compounds on ADP-induced platelet aggregation mediated by a fibrinogen-αIIbβ3 integrin interaction.
Human Platelets: Platelet-enriched plasma was obtained commercially from a donor pool. The plasma was tested prior to shipment and found to be negative for HIV, HCV and Hepatitis B. Platelet-rich plasma (PRP) was obtained by diluting plasma to an approximate final concentration of 3×10(6) platelets per mL in platelet poor plasma (PPP). PPP was the supernatant of a lowspeed centrifugation of plasma.
Adenosine diphosphate (ADP): ADP was obtained commercially and diluted to 1 mM (stock solution) in distilled, deionized water (ddH2O).
Incubation: PRP and PPP were prewarmed in a water bath at 37° C. […] PRP plus sample compound in a final volume of 500 uL was added to a pre-warmed cuvette in a ChronoLog aggregometer. A control containing PRP and 5 uL of vehicle was treated similarly to the test cuvette; final vehicle concentration was 1%. The two cuvettes were incubated with stirring (1000 rpm) at 37° C. for 5 minutes. Five hundred microliters of PPP was used as a reference (100% aggregation).
Aggregation: To begin the test, ADP was added yielding a final concentration of 20 uM to both samples (plus and minus sample compound). Light transmittance was monitored continuously and compared to the reference cuvette. After five minutes, the test was terminated and the slope and maximal amplitude of the resulting aggregation plot was calculated by the aggregometer.
The percent of maximal aggregation is the ratio of the maximal aggregations of the sample cuvette to the control multiplied by 100 (% Max) and reported as the mean+−standard deviation.

The next data set has as its target T2, αVβ3 integrin (Homo sapiens, UniProt P05106+P06756).
T2 construct: αVβ3-expressing cell lines are maintained by standard tissue culture techniques; endogenous in cells; host or cells: αVβ3-expressing cell lines
In words: Osteopontin-αVβ3 Cell Attachment Test Procedure. In kind it is cell-based. The settings on record: for IC50: attachment of cells to osteopontin, read-out: (αVβ3) IC50 CELL ATTACHMENT; for remaining activity at 20 µM / remaining activity at 100 µM: % of maximal attachment, read-out: (αVβ3) CELL ATTACHMENT, % @ concentration. Here is the method:
Osteopontin-αVβ3 Cell Attachment Test Procedure
Measuring the effect of compounds on the RGD-dependent attachment of cells to osteopontin mediated by the αVβ3 integrin.
Following incubation the wells were aspirated and washed once with D-PBS; plates can either be used immediately or stored for up to 1 week at 4° C. Prior to assay, the wells were blocked with 1% bovine serum albumin (BSA) in cell suspension media for 1 hour at 37° C. Following the blocking period, wells were aspirated and washed once with D-PBS.
αVβ3-expressing cell lines are maintained by standard tissue culture techniques. […] The cells were pelleted by low-speed centrifugation and washed three times with 0.5 mg/mL trypsin inhibitor in D-PBS (Sigma). The final cell pellet was resuspended in cell suspension media at a concentration of 10^6 cells/mL.
Incubation: 100 μL of diluted test compound was added to osteopontin-coated wells (in triplicate) followed by 100 μL of cell suspension; background cell attachment was determined in uncoated wells. The plate was incubated at 25° C. in a humidified air atmosphere for 1.5 hours. Following the incubation period, the wells were gently aspirated and washed once with D-PBS.
Cell Number Detection: The number of cells attached was determined by an MTT dye conversion assay (Promega) according to the manufacturer's instructions. Briefly, MTT dye was diluted in cell suspension media (15:85) and 100 μL was added to each well. […] The assay plates were covered and incubated at 37° C. in a humidified air atmosphere overnight.
The individual well optical density was expressed as a percentage of the maximal attachment (% Max) wells minus background attachment, and reported as the mean ±standard deviation.

Data set [1] has as its target T3, Vitronectin Receptor (αVβ3) (Homo sapiens, UniProt P05106+P06756).
T3 construct: expressed in transfected cells; host or cells: 512P5 cells (plasma membrane preparation)
The data set can be described thus: Vitronectin Receptor (αVβ3) Binding Test Procedure. To be noted: for IC50: read-out: (αVβ3) IC50 RECEPTOR BINDING.

The test system of a further data set is osteoclasts. The data set can be described thus: Osteoclast Bone Pitting. In kind it is cell-based, rat. The settings on record: Rattus norvegicus, Osteoclast. As to the method: Osteoclast Bone Pitting The test procedure was conducted as described by R. J. Murrills and D. W. […] At this pH the adherent osteoclasts excavate an adequate number of resorption pits for assay purposes. Slices were fixed in 2.5% glutaraldehyde and osteoclasts counted following tartrate-resistant acid phosphatase staining. […] All cells were stripped from the slice by sonication on 0.25M NH4OH and the resorption pits formed by the osteoclasts during the experiment stained with toluidine blue. Resorption pits were quantified by manually counting. The experiments were conducted according to a block design with osteoclasts from each animal exposed to each treatment. Three replicate slices were used per treatment per animal, such that a total of 96 slices were examined for an experiment involving four animals and eight treatments (including control). Several parameters were recorded on a “per slice” basis: number of pits, number of osteoclasts, number of pits per osteoclast, number of fibroblast-like bone cells. SAS or JMP statistical software were used for statistical analysis. […] IC50s were calculated using dose-response curves.

The mark [2] stands for this setting: % Max = percentage of the specific binding, read-out: (αVβ3) RECEPTOR BINDING, % @ concentration.

Broadly, the melting point is the temperature of the solid-liquid transition. One may read the IC50 as the concentration that gives 50% inhibition. By inhibition is commonly meant the relative decrease from the control value, in per cent. Read a low inhibition as a response near the control.

The structures appear in SMILES notation. Where a name gives a salt, the structure may show the parent alone.

T1 sequence (P08514 32-887 limits assumed): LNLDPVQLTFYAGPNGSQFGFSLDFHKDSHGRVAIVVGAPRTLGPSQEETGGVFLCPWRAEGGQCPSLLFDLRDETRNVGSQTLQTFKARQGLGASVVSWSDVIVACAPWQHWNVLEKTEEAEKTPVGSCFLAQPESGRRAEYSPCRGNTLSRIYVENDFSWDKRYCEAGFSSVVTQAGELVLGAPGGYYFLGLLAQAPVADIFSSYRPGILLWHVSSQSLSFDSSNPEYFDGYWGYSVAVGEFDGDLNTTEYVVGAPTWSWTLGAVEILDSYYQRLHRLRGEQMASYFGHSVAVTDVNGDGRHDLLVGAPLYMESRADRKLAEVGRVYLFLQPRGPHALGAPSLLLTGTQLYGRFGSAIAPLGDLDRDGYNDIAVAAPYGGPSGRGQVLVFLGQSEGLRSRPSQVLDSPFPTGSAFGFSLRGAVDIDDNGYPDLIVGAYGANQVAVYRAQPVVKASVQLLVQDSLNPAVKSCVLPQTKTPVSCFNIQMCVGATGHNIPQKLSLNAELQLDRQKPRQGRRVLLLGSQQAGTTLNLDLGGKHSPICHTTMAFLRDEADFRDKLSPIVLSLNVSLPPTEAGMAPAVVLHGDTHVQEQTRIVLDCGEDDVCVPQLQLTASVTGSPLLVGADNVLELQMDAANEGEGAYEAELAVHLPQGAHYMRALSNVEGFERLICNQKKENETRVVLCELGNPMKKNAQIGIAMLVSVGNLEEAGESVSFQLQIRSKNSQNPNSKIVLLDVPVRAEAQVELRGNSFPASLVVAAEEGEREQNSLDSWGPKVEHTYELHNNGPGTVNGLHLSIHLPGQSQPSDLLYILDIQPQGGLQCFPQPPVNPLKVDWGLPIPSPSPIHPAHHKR
T1 sequence (P08514 891-1039 partner limits assumed): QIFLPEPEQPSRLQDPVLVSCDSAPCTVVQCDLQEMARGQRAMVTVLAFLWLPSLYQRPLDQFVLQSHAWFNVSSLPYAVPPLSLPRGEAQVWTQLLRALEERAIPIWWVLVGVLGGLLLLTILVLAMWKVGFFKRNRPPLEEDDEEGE
T1 sequence (P05106 27-788): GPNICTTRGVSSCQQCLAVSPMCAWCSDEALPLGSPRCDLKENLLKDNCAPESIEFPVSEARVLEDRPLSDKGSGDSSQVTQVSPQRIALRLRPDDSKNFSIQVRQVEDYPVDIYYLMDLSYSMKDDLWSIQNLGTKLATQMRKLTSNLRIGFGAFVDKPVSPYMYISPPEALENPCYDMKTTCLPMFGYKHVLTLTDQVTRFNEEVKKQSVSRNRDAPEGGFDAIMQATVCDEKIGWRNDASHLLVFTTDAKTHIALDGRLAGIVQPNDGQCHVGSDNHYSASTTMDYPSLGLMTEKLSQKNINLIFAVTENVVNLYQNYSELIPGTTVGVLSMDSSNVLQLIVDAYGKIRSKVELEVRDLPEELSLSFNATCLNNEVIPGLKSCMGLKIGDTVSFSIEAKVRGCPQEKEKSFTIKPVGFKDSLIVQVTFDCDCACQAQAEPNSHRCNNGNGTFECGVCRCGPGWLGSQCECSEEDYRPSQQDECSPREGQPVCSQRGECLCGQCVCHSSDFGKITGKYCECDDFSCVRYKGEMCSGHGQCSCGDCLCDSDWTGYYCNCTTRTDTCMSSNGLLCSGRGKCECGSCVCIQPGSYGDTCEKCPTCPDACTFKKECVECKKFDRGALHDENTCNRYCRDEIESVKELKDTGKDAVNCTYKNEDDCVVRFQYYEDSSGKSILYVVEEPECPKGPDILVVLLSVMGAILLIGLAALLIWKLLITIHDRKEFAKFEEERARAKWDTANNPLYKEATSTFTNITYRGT
T2 sequence (P06756 31-889 limits assumed): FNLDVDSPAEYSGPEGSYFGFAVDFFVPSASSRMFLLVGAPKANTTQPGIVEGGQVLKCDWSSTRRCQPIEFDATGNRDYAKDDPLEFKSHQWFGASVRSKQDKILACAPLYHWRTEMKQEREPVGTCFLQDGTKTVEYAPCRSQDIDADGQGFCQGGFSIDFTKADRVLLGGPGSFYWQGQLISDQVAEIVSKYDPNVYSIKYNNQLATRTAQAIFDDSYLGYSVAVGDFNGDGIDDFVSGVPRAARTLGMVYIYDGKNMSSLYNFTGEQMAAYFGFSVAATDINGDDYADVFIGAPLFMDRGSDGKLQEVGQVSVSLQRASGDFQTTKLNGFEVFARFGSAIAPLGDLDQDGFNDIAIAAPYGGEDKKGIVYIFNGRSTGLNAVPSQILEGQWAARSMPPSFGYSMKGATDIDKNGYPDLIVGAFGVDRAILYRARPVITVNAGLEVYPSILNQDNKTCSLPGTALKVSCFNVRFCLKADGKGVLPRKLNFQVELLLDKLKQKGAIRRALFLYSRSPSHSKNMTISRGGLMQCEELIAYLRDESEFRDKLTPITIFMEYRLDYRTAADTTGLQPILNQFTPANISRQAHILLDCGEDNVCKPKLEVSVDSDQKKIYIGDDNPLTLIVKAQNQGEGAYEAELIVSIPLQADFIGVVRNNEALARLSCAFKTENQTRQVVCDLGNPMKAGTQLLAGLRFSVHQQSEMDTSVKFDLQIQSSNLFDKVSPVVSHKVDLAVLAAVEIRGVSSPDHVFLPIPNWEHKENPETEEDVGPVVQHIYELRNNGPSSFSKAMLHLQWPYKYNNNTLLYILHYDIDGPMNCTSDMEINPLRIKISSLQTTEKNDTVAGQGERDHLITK
T2 sequence (P06756 891-1048 partner limits assumed): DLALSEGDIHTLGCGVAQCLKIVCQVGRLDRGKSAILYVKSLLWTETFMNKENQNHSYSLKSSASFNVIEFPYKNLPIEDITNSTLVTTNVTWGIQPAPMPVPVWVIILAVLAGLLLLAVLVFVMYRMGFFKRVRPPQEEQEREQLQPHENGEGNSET
T2 sequence (P05106 27-788): as the sequence (P05106 27-788) above
T3 sequence (P06756 31-889 limits assumed): as the sequence (P06756 31-889 limits assumed) above
T3 sequence (P06756 891-1048 partner limits assumed): as the sequence (P06756 891-1048 partner limits assumed) above
T3 sequence (P05106 27-788): as the sequence (P05106 27-788) above

Regarding `N=C(N)NCCOc1ccc2cc(CC(=O)O)c(=O)[nH]c2c1` (as salt: trifluoroacetate) [Example 185, [7-(2-Guanidino-ethoxy)-2-oxo-1,2-dihydro-quinolin-3-yl]-acetic Acid], the melting point is 219 to 220 °C.

The compound `N=C(N)NCCCOc1ccc2c(c1)CCCC(CC(=O)O)C2.O=C(O)C(F)(F)F` (stereo not shown) [Example 62, [2-(3-Guanidino-propoxy)-6,7,8,9-tetrahydro-5H-benzocyclohepten-6-yl]-acetic Acid Trifluoroacetate] displayed a melting point of 109 to 114 °C. In addition, the IC50 at αIIbβ3 integrin was found to be 169 µM. Besides, the IC50 at αVβ3 integrin was 14 µM. Further, the IC50 in data set [1] stood at 1.4 µM.

As for `N=C(N)NCCCCOc1ccc2c(c1)NC(=O)C(CC(=O)O)C2.O=C(O)C(F)(F)F` (stereo not shown) [Example 84, [7-(4-Guanidino-butoxy)-2-oxo-1,2,3,4-tetrahydro-quinolin-3-yl]-acetic Acid Trifluoroacetate], the melting point lay in the range of 189 to 191 °C. The remaining activity at 200 µM at αIIbβ3 integrin was determined as 62%. The same compound registered an inhibition at 223 µM in the data set on osteoclasts (@ 223 μM) of 57%. The IC50 at αVβ3 integrin turned out to be 24.5 µM. Also, the IC50 in data set [1] stood at 11.4 µM.

`Cl.N=C(N)NCCCOc1ccc2c(c1)NC(=O)C(CC(=O)O)C2` (stereo not shown) [Example 86, [7-(3-Guanidino-propoxy)-2-oxo-1,2,3,4-tetrahydro-quinolin-3-yl]-acetic Acid Hydrochloride] gave a melting point of 227 to 229 °C. Further, the remaining activity at 200 µM on αIIbβ3 integrin is 80.9%. This compound came in with an inhibition at 280 µM in the data set with osteoclasts (@ 280 μM) of 70%. Moreover, the IC50 at αVβ3 integrin worked out at 21.1 µM. Besides, in data set [1], the IC50 is 7.3 µM.

In the case of `Cl.N=C(N)NCCC#Cc1ccc2c(c1)NC(=O)C(CC(=O)O)C2` (stereo not shown) [Example 100, [7-(4-Guanidino-but-1-ynyl)-2-oxo-1,2,3,4-tetrahydro-quinolin-3-yl]-acetic Acid Hydrochloride], the melting point was 130 to 180 °C. Further, the IC50 on αIIbβ3 integrin was 216 µM. In addition, the inhibition at 264 µM in the data set on osteoclasts (@ 264 μM) was found to be 38%. At αVβ3 integrin, the IC50 turned out to be 79 µM. Also, in data set [1] (@ 100 μM, % Max = percentage of the specific binding, read-out: (αVβ3) RECEPTOR BINDING, % @ concentration), the remaining activity at 100 µM amounted to 30.9%.

In the case of `N=C(N)NCCC=Cc1ccc2c(c1)NC(=O)C(CC(=O)O)C2.O=C(O)C(F)(F)F` (stereo not shown) [Example 112, [7-(4-Guanidino-but-1-enyl)-2-oxo-1,2,3,4-tetrahydro-quinolin-3-yl]-acetic Acid Trifluoroacetate], the melting point lay in the range of 173 to 176 °C. The remaining activity at 200 µM on αIIbβ3 integrin worked out at 80.4%. For the same compound, the IC50 on αVβ3 integrin worked out at 19.7 µM. Besides, the IC50 in data set [1] was found to be 7 µM.

`N=C(N)NCCCC=Cc1ccc2c(c1)NC(=O)C(CC(=O)O)C2.O=C(O)C(F)(F)F` (stereo not shown) [Example 113, [7-(5-Guanidino-pent-1-enyl)-2-oxo-1,2,3,4-tetrahydro-quinolin-3-yl]-acetic Acid Trifluoroacetate] yielded a melting point of 162 to 165 °C. Further, the remaining activity at 200 µM on αIIbβ3 integrin came out at 77.1%. In addition, the IC50 on αVβ3 integrin is 17.8 µM. In data set [1], the IC50 was 4 µM.

Regarding `CCn1c(=O)c(CC(=O)O)cc2ccc(OCCCNC(=N)N)cc21.O=C(O)C(F)(F)F` [Example 149, [1-Ethyl-7-(3-guanidino-propoxy)-2-oxo-1,2-dihydro-quinolin-3-yl]-acetic Acid Trifluoroacetate], the melting point was found to be 131 °C. Moreover, the remaining activity at 200 µM on αIIbβ3 integrin amounted to 90.2%. Moreover, on αVβ3 integrin, the remaining activity at 20 µM was determined as 96.3% and the remaining activity at 100 µM is 71.5%.

Regarding `N=C(N)NCCCOc1ccc2cc(CC(=O)O)c(=O)n(Cc3ccccc3)c2c1` [Example 155, [1-Benzyl-7-(3-guanidino-propoxy)-2-oxo-1,2-dihydro-quinolin-3-yl]-acetic Acid], the melting point is 132 to 134 °C. Besides, at αIIbβ3 integrin, the remaining activity at 200 µM came to 83.7%.

Consider `CCN1C(=O)C(CC(=O)O)Cc2ccc(OCCCNC(=N)N)cc21.O=C(O)C(F)(F)F` (stereo not shown) [Example 158, [1-Ethyl-7-(3-guanidino-propoxy)-2-oxo-1,2,3,4-tetrahydro-quinolin-3-yl]-acetic Acid Trifluoroacetate], for which the melting point fell in the range of 165 to 166 °C. Further, the inhibition at 216 µM with osteoclasts (@ 216 μM) stood at 13%.

As to `N=C(N)NCCCOc1ccc2cc(CC(=O)O)c(=O)[nH]c2c1.O=C(O)C(F)(F)F` [Example 186, [7-(3-Guanidino-propoxy)-2-oxo-1,2-dihydro-quinolin-3-yl]-acetic Acid Trifluoroacetate], the melting point was 195 to 198 °C. Besides, on αVβ3 integrin, the remaining activity at 20 µM turned out to be 113% and the remaining activity at 100 µM worked out at 68.9%.

As to `NCCOc1ccc2c(c1)NC(=O)C(CC(=O)O)C2` (stereo not shown) [Example 204, [7-(2-Amino-ethoxy)-2-oxo-1,2,3,4-tetrahydro-quinolin-3-yl]-acetic Acid], the melting point was in the range of 205 to 208 °C.

As for `N=C(N)NCCOc1ccc2c(c1)NC(=O)C(CCC(=O)O)C2` (stereo not shown) [Example 230, 3-[7-(2-Guanidino-ethoxy)-2-oxo-1,2,3,4-tetrahydro-quinolin-3-yl]-propionic Acid], the melting point lay in the range of 193 to 196 °C. Besides, the remaining activity at 200 µM on αIIbβ3 integrin came to 95.2%. In the data set with osteoclasts (@ 230 μM), this compound registered an inhibition at 230 µM of 15%. Besides, the remaining activity at 100 µM at αVβ3 integrin was 100%.

Regarding `N=C(N)NCCCOc1ccc2c(c1)NC(=O)C(CCC(=O)O)C2` (stereo not shown) [Example 231, 3-[7-(3-Guanidino-propoxy)-2-oxo-1,2,3,4-tetrahydro-quinolin-3-yl]-propionic Acid], the melting point fell in the range of 157 to 159 °C. For the same compound, the remaining activity at 200 µM on αIIbβ3 integrin worked out at 78.3%. Further, at αVβ3 integrin, the remaining activity at 100 µM worked out at 93%. For the same compound, the remaining activity at 30 µM in data set [1] (setting [2]) is 55.9%.

In the case of `N=C(N)NCCCOc1ccc2[nH]c(=O)c(CC(=O)O)cc2c1` [Example 237, [6-(3-Guanidino-propoxy)-2-oxo-1,2-dihydro-quinolin-3-yl]-acetic Acid], the melting point was 207 to 212 °C (dec.). Besides, at αIIbβ3 integrin, the remaining activity at 200 µM is 96.5%. Further, on αVβ3 integrin, the remaining activity at 20 µM was 86.2% and the remaining activity at 100 µM was determined as 114%. The remaining activity at 30 µM in data set [1] (setting [2]) worked out at 100%.

For `N=C(N)NCCOc1ccc2cc(CCC(=O)O)c(=O)[nH]c2c1.O=[N+]([O-])O` [Example 247, 3-[7-(2-Guanidino-ethoxy)-2-oxo-1,2-dihydro-quinolin-3-yl]-propionic Acid Nitric Acid Salt], the melting point was 211 °C (dec.). In addition, at αIIbβ3 integrin, the remaining activity at 200 µM was found to be 100%.
